Data from patent US7291732B2, “Isomeric fused pyrrolocarbazoles and isoindolones” (Cephalon, Inc., priority 1999, dated 2007).
Like-named read-outs stand apart in the source and are kept apart here.

What was measured:
[1] = target: T1, baculovirus-expressed VEGF receptor (human flk-1, KDR, VEGFR2) kinase domain (Homo sapiens, UniProt P35968); assay: VEGF receptor kinase activity inhibition, ELISA assay; type: biochemical; conditions: for VEGFR kinase (% inhibition @ 300 nM): 300 nM compound, value printed in parentheses; for VEGFR kinase (% inhibition @ 300 nM) / IC50: 40 μM ATP; for IC50: value printed without parentheses, read-out: VEGFR kinase IC50
T1 construct: VEGF receptor (human flk-1, KDR, VEGFR2) kinase domain; made in house
T1 sequence (P35968 834-1162 limits assumed): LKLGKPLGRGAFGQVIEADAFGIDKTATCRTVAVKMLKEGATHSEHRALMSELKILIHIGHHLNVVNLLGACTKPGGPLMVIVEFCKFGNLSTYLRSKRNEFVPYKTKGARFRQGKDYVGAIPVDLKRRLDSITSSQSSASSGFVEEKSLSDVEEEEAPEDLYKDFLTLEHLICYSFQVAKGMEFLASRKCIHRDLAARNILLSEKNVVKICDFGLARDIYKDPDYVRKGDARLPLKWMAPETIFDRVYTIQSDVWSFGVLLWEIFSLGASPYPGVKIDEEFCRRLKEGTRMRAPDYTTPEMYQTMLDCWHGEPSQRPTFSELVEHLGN
Protocol: Isomeric fused pyrrolocarbazole and isoindolone compounds were examined for their inhibitory effects on the kinase activity of baculovirus-expressed VEGF receptor (human flk-1, KDR, VEGFR2) kinase domain using the procedure described for the trkA kinase ELISA assay described above. The kinase reaction mixture, consisting of 50 mM Hepes, pH 7.4, 40 μM ATP, 10 mM MnCl2, 0.1% BSA, 2% DMSO, and various concentrations of inhibitor, was transferred to PLC-γ/GST-coated plates. VEGFR kinase was added and the reaction was allowed to proceed for 15 min at 37° C. Detection of phosphorylated product was accomplished by addition of anti-phosphotyrosine antibody (UBI). A secondary enzyme-conjugated antibody was delivered to capture the antibody-phosphorylated PLC-γ/GST complex. The activity of the bound enzyme was measured via an amplified detection system (Gibco-BRL). Inhibition data were analyzed using the sigmoidal dose-response (variable slope) equation in GraphPad Prism Results are summarized in Table 6.

[2] = target: T2, baculovirus-expressed PDGFβ receptor kinase domain (Homo sapiens, UniProt P09619); assay: PDGF receptor kinase activity inhibition, ELISA assay; type: biochemical; conditions: for inhibition at 1 µM: read-out: PDGFRβ (% inhibition @ 1 μM)
T2 construct: baculovirus-expressed PDGFβ receptor kinase domain; made in house
T2 sequence (P09619 600-962 limits assumed): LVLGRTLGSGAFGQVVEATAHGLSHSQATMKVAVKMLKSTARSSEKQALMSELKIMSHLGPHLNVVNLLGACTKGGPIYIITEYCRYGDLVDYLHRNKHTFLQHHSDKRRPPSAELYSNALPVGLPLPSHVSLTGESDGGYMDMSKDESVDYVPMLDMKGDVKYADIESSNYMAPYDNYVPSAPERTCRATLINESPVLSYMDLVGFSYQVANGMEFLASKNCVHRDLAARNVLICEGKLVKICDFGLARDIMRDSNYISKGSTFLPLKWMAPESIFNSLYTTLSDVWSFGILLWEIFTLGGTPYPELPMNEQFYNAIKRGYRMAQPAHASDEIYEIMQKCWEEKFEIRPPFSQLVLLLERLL
Protocol: Isomeric fused pyrrolocarbazole and isoindolone compounds were examined for their inhibitory effects on the kinase activity of baculovirus-expressed PDGFβ receptor kinase domain using the trkA kinase ELISA described above. Assays were performed in substrate (PLC-γ/GST)-coated 96-well microtiter plates. Each 100-μl reaction mixture contained 50 mM HEPES, pH 7.4, 20 μM ATP, 10 mM MnCl2, 0.1% BSA, 2% DMSO, and various concentrations of inhibitor. The reaction was initiated by addition of prephosphorylated recombinant human enzyme (10 ng/ml PDGFβ) and allowed to proceed for 15 minutes at 37° C. The prephosphorylated enzyme was prepared prior to use by incubation of the kinase in buffer containing 20 μM ATP and 10 mM MnCl2 for 1 hour at 4 C. Detection of phosphorylated product was done by adding horseradish peroxidase (HRP)-conjugated anti-phosphotyrosine antibody (UBI). The HRP substrate solution containing 3,3′-5,5′-tetramethylbenzidine and hydrogen peroxide was later added and the plates were incubated for 10 minutes at room temperature. The reaction was quenched with acid and the resulting absorbance was read at 450 nm using a Microplate Bio-kinetics Reader (Bio-Tek Instrument EL 312e). Inhibition data were analyzed using the sigmoidal dose-response (variable slope) equation in GraphPad Prism.

[3] = target: T3, baculovirus-expressed human trkA cytoplasmic domain (Homo sapiens, UniProt P04629); assay: trkA tyrosine kinase activity inhibition, ELISA-based assay; type: biochemical; conditions: for inhibition at 0.3 µM: read-out: trkA (% inhibition @ 300 nM)
T3 construct: baculovirus-expressed human trkA cytoplasmic domain; made in house
T3 sequence (P04629 440-796 limits assumed): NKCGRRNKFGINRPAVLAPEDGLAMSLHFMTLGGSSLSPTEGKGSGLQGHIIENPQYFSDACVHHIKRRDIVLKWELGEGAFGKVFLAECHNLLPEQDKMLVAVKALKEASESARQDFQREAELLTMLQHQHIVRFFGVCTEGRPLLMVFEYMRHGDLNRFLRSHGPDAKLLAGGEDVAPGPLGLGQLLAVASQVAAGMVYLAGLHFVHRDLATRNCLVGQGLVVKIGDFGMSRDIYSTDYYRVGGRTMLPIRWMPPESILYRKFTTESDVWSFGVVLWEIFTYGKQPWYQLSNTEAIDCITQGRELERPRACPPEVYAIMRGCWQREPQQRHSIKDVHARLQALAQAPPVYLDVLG
Protocol: Selected isomeric fused pyrrolocarbazole and isoindolone compounds were tested for their ability to inhibit the kinase activity of baculovirus-expressed human trkA cytoplasmic domain using an ELISA-based assay as previously described (Angeles et al, Anal. Biochem. 236: 49-55, 1996). Briefly, the 96-well microtiter plate was coated with substrate solution (recombinant human phospholipase C-γl/glutathione S-transferase fusion protein (Rotin et al., EMBO J., II: 559-567, 1992). Inhibition studies were performed in 100 μl assay mixtures containing 50 mM Hepes, pH 7.4, 40 μM ATP, 10 mM MnCl2, 0.1% BSA; 2% DMSO, and various concentrations of inhibitor. The reaction was initiated by addition of trkA kinase and allowed to proceed for 15 minutes at 37° C. An antibody to phosphotyrosine (UBI) was then added, followed by a secondary enzyme-conjugated antibody, alkaline phosphatase-labelled goat anti-mouse IgG (Bio-Rad). The activity of the bound enzyme was measured via an amplified detection system (Gibco-BRL). Inhibition data were analyzed using the sigmoidal dose-response (variable slope) equation in GraphPad Prism.

[4] = 1 μM compound, 20 μM ATP, value printed in parentheses
[5] = 300 nM compound, 40 μM ATP, value printed in parentheses

NCCCn1c2ccccc2c2c3c(c4c(c21)-c1ccccc1CC4)C(=O)NC3=O [IV-23]
VEGFR kinase (% inhibition @ 300 nM) [1]: (0) %

O=C(O)C=Cc1ccc2[nH]c3c4c(c5c(c3c2c1)C(=O)NC5=O)CCc1ccccc1-4 [IV-37]
VEGFR kinase (% inhibition @ 300 nM) [1]: (11) %

CC(C)(C)OC(=O)N1CCCC1C(=O)NCCCn1c2ccccc2c2c3c(c4c(c21)-c1ccccc1CC4)C(=O)NC3=O (centres unmarked) [IV-29]
VEGFR kinase (% inhibition @ 300 nM) [1]: (1) %

O=C1NC(=O)c2c1c1c(c3c2c2ccccc2n3CCCO)-c2ccccc2CC1 [IV-42]
VEGFR kinase (% inhibition @ 300 nM) [1]: (42) %

CNC(=S)NCc1ccc2[nH]c3c4c(c5c(c3c2c1)C(=O)NC5=O)CCc1ccccc1-4 [IV-35]
VEGFR kinase (% inhibition @ 300 nM) [1]: 43% | IC50 [1]: 316 nM

O=C1NC(=O)c2c1c1ccc3sccc3c1c1[nH]c3ccccc3c21 [XVII]
inhibition at 1 µM [2]: 24% | inhibition at 0.3 µM [3]: 10% | IC50 [1]: 796 nM

CC(C)(C)OC(=O)CCc1ccc2[nH]c3c4c(c5c(c3c2c1)C(=O)NC5=O)CCc1ccccc1-4 [IV-38]
VEGFR kinase (% inhibition @ 300 nM) [1]: (5) %

O=C(O)CCc1ccc2[nH]c3c4c(c5c(c3c2c1)C(=O)NC5=O)CCc1ccccc1-4 [IV-40]
VEGFR kinase (% inhibition @ 300 nM) [1]: (10) %

O=C1NC(=O)c2c1c1c(c3[nH]c4ccccc4c23)-c2ccccc2C1C(O)c1cccnc1 (centres unmarked) [IV-13]
VEGFR kinase (% inhibition @ 300 nM) [1]: (8) %

CNC(=S)NCCCn1c2ccccc2c2c3c(c4c(c21)-c1ccccc1CC4)C(=O)NC3=O [IV-26]
VEGFR kinase (% inhibition @ 300 nM) [1]: (10) %

COc1ccc2[nH]c3c4c(c5c(c3c2c1)C(=O)NC5=O)CCc1ccccc1-4 [IV-6]
inhibition at 0.3 µM ([1]; read-out: VEGFR kinase (% inhibition @ 300 nM)): 14%

O=C1NC(=O)c2c1c1c(c3[nH]c4ncccc4c23)-c2ccccc2CC1 [XIII]
inhibition at 1 µM [2, 4]: 10% | IC50 [1]: 8390 nM

CCOC(=O)CCn1c2ccccc2c2c3c(c4c(c21)-c1ccccc1CC4)C(=O)NC3=O [IV-21]
VEGFR kinase (% inhibition @ 300 nM) [1]: (7) %

O=C1NCc2c1c1c(c3[nH]c4ccccc4c23)-c2ccccc2CC1 [IX-2]
PDGFRβ (% inhibition @ 1 μM) [2, 4]: (8) % | trkA (% inhibition @ 300 nM) [3, 5]: (9) % | IC50 [1]: 8750 nM

CC(C)(C)OC(=O)C=Cc1ccc2[nH]c3c4c(c5c(c3c2c1)C(=O)NC5=O)CCc1ccccc1-4 [IV-36]
VEGFR kinase (% inhibition @ 300 nM) [1]: (17) %

CS(=O)(=O)NCCCn1c2ccccc2c2c3c(c4c(c21)-c1ccccc1CC4)C(=O)NC3=O [IV-24]
VEGFR kinase (% inhibition @ 300 nM) [1]: (0) %

O=C1NCc2c3c(c4c(c21)c1ccccc1n4CCO)-c1ccccc1CC3 [Compound X-4]
inhibition at 0.3 µM [3, 5]: 15% | IC50 [1]: 138 nM

O=C1NC(=O)c2c1c1c(c3c2c2ccccc2n3CCCOCc2ccccc2)-c2ccccc2CC1 [IV-41]
VEGFR kinase (% inhibition @ 300 nM) [1]: (34) %

N#CCCCn1c2ccccc2c2c3c(c4c(c21)-c1ccccc1CC4)C(=O)NC3=O [IV-20]
VEGFR kinase (% inhibition @ 300 nM) [1]: (11) %

O=C1NC(=O)c2c1c1c(c3[nH]c4ccccc4c23)-c2ccccc2C1CO (centres unmarked) [IV-15]
VEGFR kinase (% inhibition @ 300 nM) [1]: (7) %

N#CCCn1c2ccccc2c2c3c(c4c(c21)-c1ccccc1CC4)C(=O)NC3=O [IV-19]
VEGFR kinase (% inhibition @ 300 nM) [1]: (4) %

CS(=O)(=O)NCc1ccc2[nH]c3c4c(c5c(c3c2c1)C(=O)NC5=O)CCc1ccccc1-4 [IV-34]
VEGFR kinase (% inhibition @ 300 nM) [1]: (54) %

O=C1NC(=O)c2c1c1c(c3c2c2ccccc2n3CCCNC(=O)C2CCCN2)-c2ccccc2CC1 (centres unmarked) [IV-30]
VEGFR kinase (% inhibition @ 300 nM) [1]: (1) %

O=C1NC(=O)c2c1c1c(c3[nH]c4ccccc4c23)-c2ccccc2CC1 [IV-5]
PDGFRβ (% inhibition @ 1 μM) [2, 4]: (26) % | trkA (% inhibition @ 300 nM) [3, 5]: (14) % | IC50 [1]: 160 nM

Cn1c2ccccc2c2c3c(c4c(c21)-c1ccccc1C4)C(=O)NC3=O [IV-3]
inhibition at 1 µM [2, 4]: 0% | inhibition at 0.3 µM [3, 5]: 18% | melting point: > 262 °C | IC50 [1]: 332 nM

CS(=O)(=O)N1CCCC1C(=O)NCCCn1c2ccccc2c2c3c(c4c(c21)-c1ccccc1CC4)C(=O)NC3=O (centres unmarked) [IV-31]
VEGFR kinase (% inhibition @ 300 nM) [1]: (10) %

O=C1NC(=O)c2c1c1c(c3[nH]c4ccccc4c23)-c2ccccc2C1c1cccs1 (centres unmarked) [IV-16]
VEGFR kinase (% inhibition @ 300 nM) [1]: (14) %

O=C1NC(=O)c2c1c1c(c3[nH]c4ccccc4c23)-c2ccccc2OC1 [IV-11]
inhibition at 1 µM [2, 4]: 6% | inhibition at 0.3 µM [3, 5]: 4% | IC50 [1]: 555 nM

O=C1NC(=O)c2c1c1sc3ccccc3c1c1[nH]c3ccccc3c21 [IV-10]
inhibition at 1 µM [2, 4]: 11% | inhibition at 0.3 µM [3, 5]: 6% | IC50 [1]: 5330 nM

O=c1[nH]c(=O)c2c1c1c(=O)c3ccccc3c1c1[nH]c3ccccc3c12 [IV-2]
inhibition at 1 µM [2, 4]: 17% | inhibition at 0.3 µM [3, 5]: 2% | IC50 [1]: 870 nM

N#CC=Cc1ccc2[nH]c3c4c(c5c(c3c2c1)C(=O)NC5=O)CCc1ccccc1-4 [IV-43]
VEGFR kinase (% inhibition @ 300 nM) [1]: (8) %

N#Cc1ccc2c(c1)c1c3c(c4c(c1n2CCCOCc1ccccc1)-c1ccccc1CC4)C(=O)NC3=O [IV-44]
VEGFR kinase (% inhibition @ 300 nM) [1]: (3) %

O=C1NC(=O)c2c1c1c(c3[nH]c4ccc(C=Cc5ccccn5)cc4c23)-c2ccccc2CC1 [IV-39]
VEGFR kinase (% inhibition @ 300 nM) [1]: (8) %

O=C1NCc2c1c1c(c3[nH]c4ccccc4c23)-c2ccccc2C1 [IX-1]
PDGFRβ (% inhibition @ 1 μM) [2, 4]: (23) % | trkA (% inhibition @ 300 nM) [3, 5]: (9) % | VEGFR kinase (% inhibition @ 300 nM) [1]: (10) %

O=C(NCCCn1c2ccccc2c2c3c(c4c(c21)-c1ccccc1CC4)C(=O)NC3=O)Nc1ccccc1 [IV-27]
VEGFR kinase (% inhibition @ 300 nM) [1]: (5) %

O=C1NC(=O)c2c1c1c(c3[nH]c4ccccc4c23)-c2ccccc2C1 [IV-1]
inhibition at 1 µM [2, 4]: 6% | inhibition at 0.3 µM [3, 5]: 0% | melting point: > 300 °C | IC50 [1]: 71 nM

COCCOCC1c2ccccc2-c2c1c1c(c3c2[nH]c2ccccc23)C(=O)NC1=O (centres unmarked) [IV-17]
VEGFR kinase (% inhibition @ 300 nM) [1]: (3) %

O=C1NC(=O)c2c1c1c(c3[nH]c4ccccc4c23)-c2ccccc2C1C(O)c1ccncc1 (centres unmarked) [IV-18]
VEGFR kinase (% inhibition @ 300 nM) [1]: (8) %

O=C(O)CCn1c2ccccc2c2c3c(c4c(c21)-c1ccccc1CC4)C(=O)NC3=O [IV-22]
VEGFR kinase (% inhibition @ 300 nM) [1]: (8) %

CC(=O)NCCCn1c2ccccc2c2c3c(c4c(c21)-c1ccccc1CC4)C(=O)NC3=O [IV-25]
VEGFR kinase (% inhibition @ 300 nM) [1]: (0) %

O=C1NC(=O)c2c1c1c(c3[nH]c4ccc(Br)cc4c23)-c2ccccc2CC1 [IV-9]
inhibition at 1 µM [2, 4]: 20% | inhibition at 0.3 µM [3, 5]: 6% | melting point: > 300 °C | IC50 [1]: 2860 nM

COCC1c2ccccc2-c2c1c1c(c3c2[nH]c2ccccc23)C(=O)NC1=O (centres unmarked) [IV-12]
VEGFR kinase (% inhibition @ 300 nM) [1]: (19) %
